Source: the supplement of paper PMC3937590

Assays:
Assay in all cases: -log10 GI50 (growth inhibition 50%) (-log10(M)); higher = more potent growth inhibition
HCC1143 = test system: HCC1143
How it was run: (§1)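 Breast cancer cell lines were exposed to each compound for 72 hours at nine doses in 1:5 serial dilution, in triplicate, with a luminescence read-out against a time-zero plate. A Gompertz curve was fitted to the dose-response data by nonlinear least squares. The value is minus log10 of GI50, the molar concentration giving the set level of growth inhibition. Values equal to the top dose carry a < qualifier.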

HCC1806 = test system: HCC1806
How it was run: as §1

HCC1395 = test system: HCC1395
How it was run: as §1

ZR75B = test system: ZR75B
How it was run: as §1

HS578T = test system: HS578T
How it was run: as §1

BT549 = test system: BT549
How it was run: as §1

HCC2185 = test system: HCC2185
How it was run: as §1

BT474 = test system: BT474
How it was run: as §1

SUM1315MO2 = test system: SUM1315MO2
How it was run: as §1

MCF7 = test system: MCF7
How it was run: as §1

MCF10F = test system: MCF10F
How it was run: as §1

SUM225CWN = test system: SUM225CWN
How it was run: as §1

MDAMB361 = test system: MDAMB361
How it was run: as §1

MDAMB415 = test system: MDAMB415
How it was run: as §1

HCC1187 = test system: HCC1187
How it was run: as §1

HCC1569 = test system: HCC1569
How it was run: as §1

SUM149PT = test system: SUM149PT
How it was run: as §1

600MPE = test system: 600MPE
How it was run: as §1

LY2 = test system: LY2
How it was run: as §1

HCC3153 = test system: HCC3153
How it was run: as §1

SMILES | -log10 GI50 (HCC1143) | -log10 GI50 (HCC1806) | -log10 GI50 (HCC1395) | -log10 GI50 (ZR75B) | -log10 GI50 (HS578T) | -log10 GI50 (BT549) | -log10 GI50 (HCC2185) | -log10 GI50 (BT474) | -log10 GI50 (SUM1315MO2) | -log10 GI50 (MCF7) | -log10 GI50 (MCF10F) | -log10 GI50 (SUM225CWN) | -log10 GI50 (MDAMB361) | -log10 GI50 (MDAMB415) | -log10 GI50 (HCC1187) | -log10 GI50 (HCC1569) | -log10 GI50 (SUM149PT) | -log10 GI50 (600MPE) | -log10 GI50 (LY2) | -log10 GI50 (HCC3153)
Cc1ccc(C(=O)N(CCCN)[C@@H](c2nc3cc(Cl)ccc3c(=O)n2Cc2ccccc2)C(C)C)cc1 [Ispinesib] | 7.29 | 7.55 | 7.64 | 6.89 | 6.51 | 7.34 | 7.53 | 7.29 | 7.39 | 7.42 | 7.57 | 6.99 | 7.46 | 7.05 | 7.58 | 6.8 | 7.48 | 7.69 | 6.06 | 7.56
C/C(=C\c1csc(C)n1)[C@@H]1C[C@@H]2O[C@]2(C)CCC[C@H](C)[C@H](O)[C@@H](C)C(=O)C(C)(C)[C@@H](O)CC(=O)N1 [Ixabepilone] | 8.01 | 8.36 | 7.96 | 6.95 | 8.62 | 8.26 | 8.32 | 8.42 | 8.22 | 9.44 | 8.08 | 5.96 | 8.64 | 8.41 | 8.66 | 6.55 | 8.26 | 8.53 | 8.22 | 8.21
C[C@]12O[C@H](C[C@]1(O)CO)n1c3ccccc3c3c4c(c5c6ccccc6n2c5c31)CNC4=O [Lestaurtinib] | 6.48 | 6.79 | 6.91 | 6.34 | 5.99 | 6.19 | 5.52 | 6.61 | 7.45 | 5.84 | 5.72 | 6.03 | 6.45 | 6.46 | 6.13 | 6.19 | 7.12 | 5.77 | 6.6 | 5.06
CC(C)C[C@@H](C=O)NC(=O)[C@H](CC(C)C)NC(=O)[C@H](CC(C)C)NC(=O)OCc1ccccc1 [MG-132] | 6.8 | 6.5 | 6.64 | 6.4 | 6.64 | 7.04 | 6.66 | 6.75 | 6.92 | 6.47 | 7.14 | 7.01 | 6.62 | 7.08 | 7.1 | 6.68 | 6.8 | 6.3 | 6.49 | 6.84
NS(=O)(=O)OC[C@@H]1C[C@@H](n2ccc3c(N[C@H]4CCc5ccccc54)ncnc32)C[C@@H]1O [MLN4924] | 6.58 | 7.67 | 5.73 | 6.84 | 6.63 | 6.54 | 5.62 | 6.24 | 5.67 | 7.16 | 6.2 | 5.28 | 7.03 | 6.95 | 6.09 | 4.86 | 6.73 | 6.49 | 7 | 6.44
CN(Cc1cnc2nc(N)nc(N)c2n1)c1ccc(C(=O)N[C@@H](CCC(=O)O)C(=O)O)cc1 [Methotrexate] | 7.62 | 5.76 | < 3.48 | < 3.48 | < 3.48 | < 3.48 | < 3.48 | < 3.48 | < 3.48 | 7.34 | 7 | < 3.48 | 6.8 | < 3.48 | 5.59 | < 3.48 | < 3.48 | 5.39 | 7.47 | < 3.48
COc1ccc(C2=N[C@@H](c3ccc(Cl)cc3)[C@@H](c3ccc(Cl)cc3)N2C(=O)N2CCNC(=O)C2)c(OC(C)C)c1 [Nutlin 3a] | 4.67 | 4.32 | 4.65 | 5.69 | < 4.18 | 4.37 | 4.81 | 4.8 | 4.75 | 5.25 | 5.18 | 4.69 | 4.18 | 4.46 | 4.78 | 4.43 | 4.56 | 4.81 | 5.29 | 4.56
CC[C@H](CO)Nc1nc(NCc2ccccc2O)c2ncn(C(C)C)c2n1 [Olomoucine II] | 5.51 | 5.06 | 5.72 | 5.23 | 5.18 | 5.66 | 5.11 | 5.2 | 5.47 | 5.23 | 5.03 | 5.28 | 5.01 | 5.32 | 5.18 | 5.28 | 5.18 | 5.23 | 5.46 | 5.51
Nc1nc2[nH]cc(CCc3ccc(C(=O)N[C@@H](CCC(=O)O)C(=O)O)cc3)c2c(=O)[nH]1 [Pemetrexed] | < 2.53 | 6.05 | < 2.53 | < 2.53 | 4.59 | < 2.53 | < 2.53 | < 2.53 | < 2.53 | < 2.53 | < 2.53 | < 2.53 | 6.19 | < 2.53 | < 2.53 | < 2.53 | < 2.53 | < 2.53 | 6.33 | < 2.53
N#Cc1c(-c2ccccc2)cc(-c2cc(Br)ccc2O)[nH]c1=O [TCS PIM-11] | < 3.88 | < 3.88 | < 3.88 | < 3.88 | < 4.18 | < 3.88 | 4.33 | < 3.88 | 4.75 | < 3.88 | < 3.88 | 4.53 | < 3.88 | < 3.88 | 4.42 | 4.33 | 4.49 | < 3.88 | < 3.88 | < 3.88
